Results published in patent US10076504B2, “Glucagon antagonists” (Ligand Pharmaceuticals, Inc., priority 2014, dated 2018).
Counter-ions that a name gives are not always drawn.

Columns and labels:
[1] = biological target: T1, human glucagon receptor (Homo sapiens, UniProt P47871); experiment: Human glucagon receptor binding assay; settings: displacement of [125I]glucagon from human glucagon receptor; read-out: Hu IC50
T1 construct: host or cells: Either human liver membranes or membranes of an unnamed recombinant cell line
Protocol: Compounds provided herein are dissolved in a suitable solvent (e.g., dimethylsulfoxide) at a concentration of 10 mM and then diluted in buffer (e.g., 50 mM Hepes, pH 7.4, 5 mM MgCl2, 1 mM CaCl2, and 0.2% BSA) to concentrations ranging from 1 nM to 100 μM. Compounds (20 μL/well) and [^125I]glucagon at the final concentration of 0.125 nM (20 μl/well) (Perkin Elmer) are added to and mixed in wells of a 96-well plate (Costar, Corning) containing 120 μL of buffer. Next, an appropriate aliquot of a membrane preparation containing the human glucagon receptor (isolated from human liver samples or obtained from a recombinant cell line) is added to the wells. The binding mixtures are incubated for 2 hrs at room temperature. In the meantime, a MultiScreen 96-well filter plate (Millipore) is treated with 200 μL of the buffer, which is vacuumed through the filter just before the binding mixtures are transferred to the plate. At the end of incubation, binding mixtures are transferred to the wells of the MultiScreen 96-well filter plate and filtered through by applying vacuum. The plate is washed once with 200 μL per well of the buffer, and the filters are dried and counted using a gamma counter.
The column marked “stereo” indicates whether the tested compound tested was racemic or the R-isomer (rac=racemic).

[2] = Single ascending dose study, pharmacokinetics; format: in vivo, human; settings: 2 to 480 mg oral, human subjects
Protocol: (§1) Oral doses of IIIa were administered to normal healthy volunteers (NHV) and subjects with type 2 diabetes mellitus (T2DM). A single center, randomized, double-blind, placebo-controlled single ascending dose study was done in both NHV (n=48) and T2DM subjects (n=8). Dose escalation only occurred after review of safety and tolerability data from previous dose levels (n=8/cohort; 2-placebo & 6-IIIa). Dosing of the T2DM cohort was initiated only after the equivalent dose had been administered to NHV and safety data had been reviewed. All subjects were administered IIIa in the morning after an overnight fast with the exception of the NHV in the 40 mg cohort. NHV subjects in the 40 mg cohort initially received IIIa in a fasted state. Following a 3 week washout period, IIIa was readministered after breakfast at 40 mg to determine the effects of food consumption on pharmacokinetics.
(§2) This was a single center, randomized, double-blind, placebo-controlled single ascending dose study in both normal healthy volunteers (NHV) (n=48) and subjects with type 2 diabetes mellitus (T2DM) (n=8). All subjects were administered Formula IIIa as a solution formulated with Captisol® after an overnight fast with the exception of the NHV in the 40 mg cohort. The NHV 40 mg cohort initially received Formula IIIa in a fasted state. Following a washout period, subjects received 40 mg Formula IIIa after breakfast to explore the effects of food consumption on pharmacokinetics.
Plasma levels of Formula IIIa were measured by validated LC-MS/MS method. Formula IIIa was well absorbed after oral administration with peak plasma concentrations reached approximately 5-8 hours post dose. Consistent with preclinical predictions, clearance was slow and Formula IIIa was not detected in the urine.

[3] = Single ascending dose study, safety and tolerability; format: in vivo, human; settings: single oral doses 2 to 480 mg in NHV, 40 mg in T2DM subjects
Protocol: as §1, §2
In type 2 diabetes mellitus (T2DM), inappropriately elevated levels of glucagon exacerbate hyperglycemia and its associated complications. Not wishing to be bound to a particular theory, it has been observed that antagonism of glucagon action reduces blood glucose levels and hemoglobin A1c in patients with T2DM. The novel, selective, orally bioavailable glucagon receptor antagonist, Formula IIIa (below), was investigated regarding its pharmacokinetics (PK), safety, and pharmacodynamics (PD) in a first-in-human, ascending, single-dose, double blind, placebo-controlled study in normal healthy (NH) and T2DM subjects (NCT01919684).

[4] = Solubility in water, buffers, simulated fluids and Captisol; format: physicochemical; settings: thermodynamic from solid; for solubility: aqueous with cosolvent or surfactant or cyclodextrin, ambient conditions, UV after 2-3day equilibration; for solubility at 24 h: 25° C., HPLC after 24-hour equilibration
Protocol: Solubility of a sodium salt of Formula IIIa (below) was determined in water and at various pH values and simulated intestinal fluids using HPLC and UV analysis with and without modified beta-cyclodextrin (Captisol®). Phase solubility was used to estimate the Captisol®: Formula IIIa binding constant. The influence of Captisol® on oral absorption was modelled as shown below. The effect of Captisol® on solution stability was determined by HPLC. Plasma levels of Formula IIIa were measured by LCMS/MS.

T1 sequence (P47871 26-477): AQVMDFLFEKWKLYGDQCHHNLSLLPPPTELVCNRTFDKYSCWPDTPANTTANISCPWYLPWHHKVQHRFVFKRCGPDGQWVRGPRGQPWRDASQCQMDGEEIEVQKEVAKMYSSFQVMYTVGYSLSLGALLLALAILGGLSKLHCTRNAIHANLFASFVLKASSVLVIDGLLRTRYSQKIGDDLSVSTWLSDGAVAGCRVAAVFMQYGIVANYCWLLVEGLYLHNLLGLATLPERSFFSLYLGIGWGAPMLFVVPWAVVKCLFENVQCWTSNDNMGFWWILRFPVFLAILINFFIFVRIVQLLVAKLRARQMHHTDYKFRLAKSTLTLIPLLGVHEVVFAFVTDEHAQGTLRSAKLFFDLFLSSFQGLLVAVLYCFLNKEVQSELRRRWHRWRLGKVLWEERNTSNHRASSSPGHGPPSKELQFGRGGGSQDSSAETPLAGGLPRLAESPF

SMILES | IC50 [1] [nM] | plasma exposure versus dose [2] | tolerability [3] | solubility ([4]; 15% w/v Captisol) [µg/mL] | solubility ([4]; 35% w/v Captisol) [µg/mL] | solubility at 24 h ([4]; simulated gastric fluid, 0.01N HCL) [µg/mL] | solubility at 24 h ([4]; simulated gastric fluid, 0.1N HCL) [µg/mL] | solubility at 24 h ([4]; Fasted state simulated intestinal fluid (FaSSIF)) [µg/mL] | solubility at 24 h ([4]; Fed state simulated intestinal fluid (FeSSIF)) [µg/mL] | solubility at 24 h ([4]; Simulated gastric fluid (SGF)) [µg/mL] | solubility at 24 h ([4]; Water) [µg/mL]
Cc1cc(Cl)ccc1-c1ccc(NC(=O)C(Cc2ccc(C(=O)NCCS(=O)(=O)O)cc2)c2ccc(C3CCC(C(C)(C)C)CC3)cc2)cc1 (stereo not drawn) | 9 | – | – | – | – | – | – | – | – | – | –
Cc1cc(C(F)(F)F)ccc1-c1ccc(NC(=O)C(Cc2ccc(C(=O)NCCS(=O)(=O)O)cc2)c2ccc(C3=CCC(C)(C)CC3)cc2)cc1 (racemic) | 15 | – | – | – | – | – | – | – | – | – | –
Cc1cc(C)c(C2C=CC(NC(=O)[C@H](Cc3ccc(C(=O)NCCS(=O)(=O)O)cc3)c3ccc(-c4ccc(C(C)(C)C)cc4)cc3)=CC2)c(C)c1 (stereo partly drawn) [Formula IIIa sodium salt] | – | dose dependent increases | well tolerated | 11530 ± 40 | 32900 ± 440 | 70 | 60 | 210 | 6540 ± 190 | 40 ± 10 | 210 ± 10
